Data taken from patent publication US8471005B2 (Cephalon, Inc., priority 2008, dated 2013).
Where two headings read alike, the source gives them in different places.

Experiments:
JAK2 = molecular target: T1, JAK2 (Homo sapiens, UniProt O60674); assay: Recombinant Human JAK2 Kinase Assay (TRF); type: biochemical; details: read-out: JAK2 Potency
T1 construct: host or cells: baculovirus expression system
Summary of the method: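 Baculovirus-expressed JAK2 (15 ng/ml) phosphorylated a biotinylated 15-mer peptide captured on Neutravidin, in 20 mM HEPES pH 7.2, 0.2 μM ATP, 1 mM MnCl2, 0.1% BSA, 2.5% DMSO final, 20 min at room temperature. Phosphoproduct detected by time-resolved fluorescence with Eu-N1-labelled PY100 antibody.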

ALK = molecular target: T2, ALK (Homo sapiens, UniProt Q9UM73); assay: ALK Kinase Assay (ELISA/TRF, PLC-γ substrate); type: biochemical; details: read-out: ALK Potency
T2 construct: host or cells: baculovirus expression system
T2 sequence (Q9UM73 19-1620): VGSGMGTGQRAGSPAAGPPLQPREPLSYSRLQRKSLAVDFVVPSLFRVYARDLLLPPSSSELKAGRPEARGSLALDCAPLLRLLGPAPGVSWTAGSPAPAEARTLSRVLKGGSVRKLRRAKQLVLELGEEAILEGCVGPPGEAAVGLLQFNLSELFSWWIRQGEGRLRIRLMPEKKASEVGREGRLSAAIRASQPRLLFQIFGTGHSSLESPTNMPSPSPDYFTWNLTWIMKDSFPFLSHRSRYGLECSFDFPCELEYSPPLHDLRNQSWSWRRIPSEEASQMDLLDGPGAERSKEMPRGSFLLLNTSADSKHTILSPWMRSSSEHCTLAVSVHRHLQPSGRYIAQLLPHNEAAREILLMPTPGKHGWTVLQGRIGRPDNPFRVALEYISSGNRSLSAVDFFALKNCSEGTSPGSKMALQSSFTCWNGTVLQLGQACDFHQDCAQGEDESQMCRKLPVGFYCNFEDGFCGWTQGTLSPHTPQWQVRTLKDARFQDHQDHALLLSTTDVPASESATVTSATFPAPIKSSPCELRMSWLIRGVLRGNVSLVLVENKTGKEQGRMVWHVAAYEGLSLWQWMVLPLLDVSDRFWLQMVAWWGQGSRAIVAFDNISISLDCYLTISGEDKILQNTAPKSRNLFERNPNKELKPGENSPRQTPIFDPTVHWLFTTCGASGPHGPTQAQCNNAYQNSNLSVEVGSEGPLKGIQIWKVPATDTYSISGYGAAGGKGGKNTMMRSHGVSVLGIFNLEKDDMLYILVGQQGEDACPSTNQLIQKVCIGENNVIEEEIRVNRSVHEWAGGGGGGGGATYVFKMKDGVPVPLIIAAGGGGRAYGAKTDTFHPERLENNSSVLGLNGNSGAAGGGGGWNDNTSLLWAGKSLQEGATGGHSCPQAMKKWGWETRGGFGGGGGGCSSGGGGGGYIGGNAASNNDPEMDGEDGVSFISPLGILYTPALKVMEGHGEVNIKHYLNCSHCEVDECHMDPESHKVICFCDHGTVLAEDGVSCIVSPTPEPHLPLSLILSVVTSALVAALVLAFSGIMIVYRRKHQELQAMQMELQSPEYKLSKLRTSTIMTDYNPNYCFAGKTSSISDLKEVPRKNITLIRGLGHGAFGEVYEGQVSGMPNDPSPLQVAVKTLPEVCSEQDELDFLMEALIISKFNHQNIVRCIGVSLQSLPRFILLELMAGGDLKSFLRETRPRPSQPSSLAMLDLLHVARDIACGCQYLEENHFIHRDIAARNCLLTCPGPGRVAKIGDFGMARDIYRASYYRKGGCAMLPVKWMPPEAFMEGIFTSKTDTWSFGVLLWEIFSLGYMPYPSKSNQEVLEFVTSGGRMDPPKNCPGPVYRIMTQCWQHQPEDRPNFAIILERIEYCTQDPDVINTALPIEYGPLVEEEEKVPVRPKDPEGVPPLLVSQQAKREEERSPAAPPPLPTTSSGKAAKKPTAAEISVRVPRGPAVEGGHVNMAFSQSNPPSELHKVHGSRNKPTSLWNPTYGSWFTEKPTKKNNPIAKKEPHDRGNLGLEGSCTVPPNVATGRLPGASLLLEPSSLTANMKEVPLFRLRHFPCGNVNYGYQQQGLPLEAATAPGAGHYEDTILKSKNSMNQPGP
Summary of the method: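 Wells were coated with 10 μg/mL phospholipase C-γ substrate in TBS, and the reaction was started by adding 30 ng/ml ALK enzyme and run at 37° C for 15 minutes. Phosphorylated product was detected with Eu-N1-labeled PT66 antibody, and IC50 values came from sigmoidal variable-slope fits of percent inhibition against log concentration.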

[1] = JAK2 kinase inhibition, 0.2 μM ATP
[2] = ALK kinase inhibition, 1 μM ATP

T1 sequence (O60674 whole entry): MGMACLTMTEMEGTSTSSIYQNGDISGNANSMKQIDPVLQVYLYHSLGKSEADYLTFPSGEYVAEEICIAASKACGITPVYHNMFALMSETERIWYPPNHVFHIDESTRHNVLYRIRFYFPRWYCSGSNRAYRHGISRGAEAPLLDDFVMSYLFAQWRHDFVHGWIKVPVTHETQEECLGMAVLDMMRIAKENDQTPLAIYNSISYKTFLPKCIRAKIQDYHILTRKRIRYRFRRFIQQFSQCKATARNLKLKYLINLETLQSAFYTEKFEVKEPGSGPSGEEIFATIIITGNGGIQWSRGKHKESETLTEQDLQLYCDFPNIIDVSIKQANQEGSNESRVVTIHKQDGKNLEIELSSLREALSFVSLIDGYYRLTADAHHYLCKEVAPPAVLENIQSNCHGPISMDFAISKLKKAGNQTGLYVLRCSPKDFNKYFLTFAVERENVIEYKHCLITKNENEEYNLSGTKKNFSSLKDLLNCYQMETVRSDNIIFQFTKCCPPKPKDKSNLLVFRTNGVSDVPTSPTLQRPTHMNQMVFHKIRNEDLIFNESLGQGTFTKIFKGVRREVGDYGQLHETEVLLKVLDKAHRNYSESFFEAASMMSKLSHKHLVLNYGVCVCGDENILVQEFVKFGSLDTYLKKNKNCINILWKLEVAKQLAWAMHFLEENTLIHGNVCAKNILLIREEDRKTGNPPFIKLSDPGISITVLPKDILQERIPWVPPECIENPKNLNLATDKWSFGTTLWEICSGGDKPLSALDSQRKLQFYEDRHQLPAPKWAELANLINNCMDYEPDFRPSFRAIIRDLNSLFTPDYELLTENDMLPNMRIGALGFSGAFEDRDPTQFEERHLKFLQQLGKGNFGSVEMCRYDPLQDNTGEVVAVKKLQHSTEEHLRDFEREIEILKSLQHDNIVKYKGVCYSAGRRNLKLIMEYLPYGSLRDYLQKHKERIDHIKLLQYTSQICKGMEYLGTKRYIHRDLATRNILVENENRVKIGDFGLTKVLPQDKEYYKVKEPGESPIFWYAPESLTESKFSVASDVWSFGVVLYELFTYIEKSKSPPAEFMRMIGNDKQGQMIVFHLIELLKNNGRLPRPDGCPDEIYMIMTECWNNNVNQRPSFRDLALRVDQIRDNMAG

IC50 (JAK2; JAK2 Kinase Inhibition)	IC50 (ALK; ALK Kinase Inhibition)	IC50 (JAK2; [1])	IC50 (ALK; [2])	SMILES
< 100 nM	< 100 nM	–	–	Cc1cc(N2CCN(C)CC2)ccc1Nc1ncc2ccc(-c3cccc(Cl)c3)n2n1 [Example 68, [7-(3-Chloro-phenyl)-pyrrolo[2,1-f][1,2,4]triazin-2-yl]-[2-methyl-4-(4-methyl-piperazin-1-yl)-phenyl]-amine]
–	–	< 100 nM	> 10000 nM	CCS(=O)(=O)c1cccc(-c2ccc3cnc(Nc4ccc5nc(C(F)(F)F)[nH]c5c4)nn23)c1 [Example 1313, [7-(3-Ethanesulfonyl-phenyl)-pyrrolo[2,1-f][1,2,4]triazin-2-yl]-(2-trifluoromethyl-3H-benzimidazol-5-yl)-amine]
–	–	< 100 nM	100 to 1000 nM	COc1ccncc1-c1ccc2cnc(Nc3ccc(N4CCN(C)CC4)cc3)nn12 [Example 1210, [7-(4-Methoxy-pyridin-3-yl)-pyrrolo[2,1-f][1,2,4]triazin-2-yl]-[4-(4-methyl-piperazin-1-yl)-phenyl]-amine]
–	–	100 to 1000 nM	< 100 nM	COc1cc(CN2C[C@@H](O)[C@H](O)C2)ccc1Nc1ncc2ccc(-c3ccccc3OC)n2n1 [Example 1237, (3R,4R)-1-{3-Methoxy-4-[7-(2-methoxy-phenyl)-pyrrolo[2,1-f][1,2,4]triazin-2-ylamino]-benzyl}-pyrrolidine-3,4-diol]
–	–	100 to 1000 nM	< 100 nM	COc1cc(C2CCN(C[C@H](O)C(F)(F)F)CC2)ccc1Nc1ncc2ccc(-c3ccccc3N(C)S(C)(=O)=O)n2n1 [Example 804, N-[2-(2-{2-Methoxy-4-[1-((S)-3,3,3-trifluoro-2-hydroxy-propyl)-piperidin-4-yl]-phenylamino}-pyrrolo[2,1-f][1,2,4]triazin-7-yl)-phenyl]-N-methyl-methanesulfonamide]
–	–	< 100 nM	100 to 1000 nM	CN1CCN(c2ccc(Nc3ncc4cc(-c5cccc(CCC#N)c5)cn4n3)cc2)CC1 [Example 1161, 3-(3-{2-[4-(4-Methyl-piperazin-1-yl)-phenylamino]-pyrrolo[2,1-f][1,2,4]triazin-6-yl}-phenyl)-propionitrile]
< 100 nM	100 to 1000 nM	–	–	CC(C)(C)NS(=O)(=O)c1cccc(-c2ccc3cnc(Nc4ccc5nc(CN6CCN(CCO)CC6)[nH]c5c4)nn23)c1 [Example 1520, N-tert-Butyl-3-(2-{2-[4-(2-hydroxy-ethyl)-piperazin-1-ylmethyl]-3H-benzimidazol-5-ylamino}-pyrrolo[2,1-f][1,2,4]triazin-7-yl)-benzenesulfonamide]
< 100 nM	< 100 nM	–	–	CCN1CCOC(c2ccc(Nc3ncc4ccc(-c5ccccc5OC)n4n3)cc2)C1 (stereo not drawn) [Example 252, [4-(4-Ethyl-morpholin-2-yl)-phenyl]-[7-(2-methoxy-phenyl)-pyrrolo[2,1-f][1,2,4]triazin-2-yl]-amine]
< 100 nM	100 to 1000 nM	–	–	COc1ccc(Nc2ncc3ccc(-c4ccccc4N(C)S(C)(=O)=O)n3n2)cc1N1CCCC1=O [Example 1370, N-(2-{2-[4-Methoxy-3-(2-oxo-pyrrolidin-1-yl)-phenylamino]-pyrrolo[2,1-f][1,2,4]triazin-7-yl}-phenyl)-N-methyl-methanesulfonamide]
< 100 nM	1000 to 10000 nM	–	–	c1ccc(NCc2ccc3cnc(Nc4ccc(N5CCOCC5)cc4)nn23)cc1 [Example 362, (4-Morpholin-4-yl-phenyl)-(7-phenylaminomethyl-pyrrolo[2,1-f][1,2,4]triazin-2-yl)-amine]
–	–	< 100 nM	1000 to 10000 nM	CS(=O)(=O)c1cccc(-c2ccc3cnc(Nc4ccc(Cl)c(OC[C@H]5CCCN5)c4)nn23)c1 [Example 1021, [4-Chloro-3-((R)-1-pyrrolidin-2-ylmethoxy)-phenyl]-[7-(3-methanesulfonyl-phenyl)-pyrrolo[2,1-f][1,2,4]triazin-2-yl]-amine]
< 100 nM	100 to 1000 nM	–	–	CN1CCN(C(=O)c2ccc(Nc3ncc4ccc(-c5ccccc5N(C)S(C)(=O)=O)n4n3)cc2)CC1 [Example 1425, N-Methyl-N-(2-{2-[4-(4-methyl-piperazine-1-carbonyl)-phenylamino]-pyrrolo[2,1-f][1,2,4]triazin-7-yl}-phenyl)-methanesulfonamide]
